Measurements: patent US20250171423A1, “PHARMACEUTICAL COMPOUNDS FOR THE TREATMENT OF COMPLEMENT MEDIATED DISORDERS” (Achillion Pharmaceuticals, Inc., priority 2020, published 2025)

The compounds below were run against T1, Human complement C1s enzyme (Homo sapiens, UniProt P09871) (assay: Human C1s Enzyme Assay). Settings: human C1s 1.16 nM, 5 min preincubation, substrate Z-L-Lys-SBzl 100 μM, A405; read-out: C1s Protease Activity.
T1 construct: purified from human serum, Complement Technology, Inc; purchased Complement Technology, Inc; host or cells: human serum
T1 sequence (P09871 438-688 limits assumed): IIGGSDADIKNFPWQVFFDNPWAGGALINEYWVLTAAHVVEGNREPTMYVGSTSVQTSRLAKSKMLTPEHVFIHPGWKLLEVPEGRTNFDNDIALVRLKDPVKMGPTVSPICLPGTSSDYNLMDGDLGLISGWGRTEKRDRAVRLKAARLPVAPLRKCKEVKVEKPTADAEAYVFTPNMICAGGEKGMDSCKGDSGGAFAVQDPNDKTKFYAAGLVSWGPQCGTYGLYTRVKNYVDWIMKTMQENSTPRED
T1 sequence (P09871 16-437 partner limits assumed): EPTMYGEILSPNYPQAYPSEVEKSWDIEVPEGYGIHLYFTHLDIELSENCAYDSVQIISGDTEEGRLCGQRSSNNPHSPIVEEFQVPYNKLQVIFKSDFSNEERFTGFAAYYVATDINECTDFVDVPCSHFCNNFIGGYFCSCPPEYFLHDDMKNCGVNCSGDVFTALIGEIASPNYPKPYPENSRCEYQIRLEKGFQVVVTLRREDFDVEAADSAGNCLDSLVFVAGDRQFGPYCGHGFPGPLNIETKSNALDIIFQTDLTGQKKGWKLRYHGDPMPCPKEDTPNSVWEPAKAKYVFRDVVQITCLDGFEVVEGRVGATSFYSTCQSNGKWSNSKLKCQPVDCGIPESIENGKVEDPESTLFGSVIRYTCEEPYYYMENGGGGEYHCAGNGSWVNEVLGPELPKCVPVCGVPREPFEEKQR
Format: biochemical
How it was run: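 IC50 values were fitted by nonlinear regression to rates measured as A405 every 30 s for 30 min. The thioester substrate Z-L-Lys-SBzl and Ellman's reagent were each at 100 μM. Serum-derived C1s at 1.16 nM final had 5 min of room-temperature preincubation with compound (pH 7.5 Tris buffer, 1 M NaCl).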
For `C[C@@H](NC(=O)[C@@H]1CC2(CN1C(=O)CNC(=O)CCCOc1ccc(F)cc1)OCCO2)c1cc(C(=N)N)cs1` [Compound 104, (S)-N-((R)-1-(4-carbamimidoylthiophen-2-yl)ethyl)-7-((4-(4-fluorophenoxy)butanoyl)-glycyl)-1,4-dioxa-7-azaspiro[4.4]nonane-8-carboxamide], the IC50 was under 100 nM. `C[C@@H](NC(=O)[C@@H]1C[C@@]2(CN1C(=O)CNC(=O)CCCOc1ccccc1)CC2(F)F)c1cc(C(=N)N)cs1` [Compound 105, (3S,6S)-N-((R)-1-(4-carbamimidoylthiophen-2-yl)ethyl)-1,1-difluoro-5-((4-phenoxy-butanoyl)glycyl)-5-azaspiro[2.4]heptane-6-carboxamide] gave an IC50 of 100 to 1000 nM. `CO[C@@H]1C[C@@H](C(=O)N[C@H](C)c2cc(C(=N)N)cs2)N(C(=O)CNC(=O)CCCOc2ccccc2)C1` [Compound 106, (2S,4R)-N-((R)-1-(4-carbamimidoylthiophen-2-yl)ethyl)-4-methoxy-1-((4-phenoxy-butanoyl)glycyl)pyrrolidine-2-carboxamide] showed an IC50 of under 100 nM. With `C[C@@H](NC(=O)[C@@H]1C[C@@H](S(C)(=O)=O)CN1C(=O)CNC(=O)CCCOc1ccc(F)cc1)c1cc(C(=N)N)cs1` [Compound 107, (2S,4R)-N-((R)-1-(4-carbamimidoylthiophen-2-yl)ethyl)-1-((4-(4-fluorophenoxy)-butanoyl)glycyl)-4-(methylsulfonyl)pyrrolidine-2-carboxamide] the IC50 was under 100 nM. With `C[C@@H](NC(=O)[C@@H]1C[C@@H](OC(F)F)CN1C(=O)CNC(=O)CCCOc1ccc(F)cc1)c1cc(C(=N)N)cs1` [Compound 108, (2S,4R)-N-((R)-1-(4-carbamimidoylthiophen-2-yl)ethyl)-4-(difluoromethoxy)-1-((4-(4-fluorophenoxy)butanoyl)glycyl)pyrrolidine-2-carboxamide] the IC50 was under 100 nM. Work on `N=C(N)c1csc(CNC(=O)[C@@H]2C[C@](F)(CN)CN2C(=O)CNC(=O)CCCOc2ccccc2)c1` [Compound 109, (2S,4S)-4-(aminomethyl)-N-((4-carbamimidoylthiophen-2-yl)methyl)-4-fluoro-1-((4-phenoxybutanoyl)glycyl)pyrrolidine-2-carboxamide] yielded an IC50 of under 100 nM. `N=C(N)c1csc(CNC(=O)[C@@H]2C[C@@H](OC3CC3)CN2C(=O)CNC(=O)c2ccc(Oc3ccccc3)cc2)c1` [Compound 110, (2S,4R)-N-((4-carbamimidoylthiophen-2-yl)methyl)-4-cyclopropoxy-1-((4-phenoxy-benzoyl)glycyl)pyrrolidine-2-carboxamide] was tested, and the IC50 was under 100 nM. With `C[C@@H](NC(=O)[C@@H]1C[C@@H](Oc2ccccc2)CN1C(=O)CNC(=O)CCCOc1ccccc1)c1cc(C(=N)N)cs1` [Compound 111, (2S,4R)-N-((R)-1-(4-carbamimidoylthiophen-2-yl)ethyl)-4-phenoxy-1-((4-phenoxy-butanoyl)glycyl)pyrrolidine-2-carboxamide] the IC50 was under 100 nM. Compound `C[C@@]12C[C@@H]1N(C(=O)CNC(=O)c1ccc(Oc3ccccc3)cc1)[C@H](C(=O)N1CCc3c(C(=N)N)csc3C1)C2` [Compound 112, N-(2-((1S,3S,5S)-3-(3-carbamimidoyl-4,5,6,7-tetrahydrothieno[2,3-c]pyridine-6-carbonyl)-5-methyl-2-azabicyclo[3.1.0]hexan-2-yl)-2-oxoethyl)-4-phenoxybenzamide] has an IC50 of 100 to 1000 nM. With `CO[C@H]1[C@@H](C(=O)NCc2cc(C(=N)N)cs2)N(C(=O)CNC(=O)CCCOc2ccccc2)C[C@@H]1F` [Compound 113, (2S,3S,4S)-N-((4-carbamimidoylthiophen-2-yl)methyl)-4-fluoro-3-methoxy-1-((4-phenoxybutanoyl)glycyl)pyrrolidine-2-carboxamide] the IC50 was 100 to 1000 nM. `C[C@@H](NC(=O)[C@@H]1CC2(CCCC2)CN1C(=O)CNC(=O)CCCOc1ccccc1)c1cc(C(=N)N)cs1` [Compound 114, (S)-N-((R)-1-(4-carbamimidoylthiophen-2-yl)ethyl)-2-((4-phenoxybutanoyl)glycyl)-2-azaspiro[4.4]nonane-3-carboxamide] showed an IC50 of under 100 nM. `C[C@@H](NC(=O)[C@@H]1CC2(CN1C(=O)CNC(=O)CCCOc1ccccc1)OCCO2)c1cc(C(=N)N)cs1` [Compound 115, (S)-N-((R)-1-(4-carbamimidoylthiophen-2-yl)ethyl)-7-((4-phenoxybutanoyl)glycyl)-1,4-dioxa-7-azaspiro[4.4]nonane-8-carboxamide] was tested, and the IC50 was under 100 nM. `C[C@@H](NC(=O)[C@@H]1CC2(CC2)CN1C(=O)CNC(=O)CCCOc1ccccc1)c1cc(C(=N)N)cs1` [Compound 116, (6S)-N-[(1R)-1-(4-carbamimidoylthiophen-2-yl)ethyl]-5-[2-(4-phenoxybutanamido)acetyl]-5-azaspiro[2.4]heptane-6-carboxamide] showed an IC50 of under 100 nM. Work on `C[C@@]12C[C@@H]1N(C(=O)CNC(=O)CCCOC1CCCCC1)[C@H](C(=O)NCc1cc(C(=N)N)cs1)C2` [Compound 117] yielded an IC50 of under 100 nM. Work on `Cc1cccc(O[C@@H]2C[C@@H](C(=O)N[C@H](C)c3cc(C(=N)N)cs3)N(C(=O)CNC(=O)CCCOc3ccccc3)C2)c1` [Compound 118, (2S,4R)-N-((R)-1-(4-carbamimidoylthiophen-2-yl)ethyl)-1-((4-phenoxybutanoyl)-glycyl)-4-(m-tolyloxy)pyrrolidine-2-carboxamide] yielded an IC50 of under 100 nM. With `C[C@@H](NC(=O)[C@@H]1C[C@@H](Oc2ccc(F)cc2)CN1C(=O)CNC(=O)CCCOc1ccccc1)c1cc(C(=N)N)cs1` [Compound 119, (2S,4R)-N-((R)-1-(4-carbamimidoylthiophen-2-yl)ethyl)-4-(4-fluorophenoxy)-1-((4-phenoxybutanoyl)glycyl)pyrrolidine-2-carboxamide] the IC50 was under 100 nM. `C[C@@H](NC(=O)[C@@H]1C[C@]2(C)C[C@@H]2N1C(=O)CNC(=O)CCCOc1ccc(F)cc1)c1cc(C(=N)N)cs1` [Compound 121, (1S,3S,5S)-N-((R)-1-(4-carbamimidoylthiophen-2-yl)ethyl)-2-((4-(4-fluorophenoxy)butanoyl)glycyl)-5-methyl-2-azabicyclo[3.1.0]hexane-3-carboxamide] was tested, and the IC50 was 100 to 1000 nM. `C[C@@H](NC(=O)[C@@H]1C[C@]2(C)C[C@@H]2N1C(=O)CNC(=O)CCCOc1ccccc1)c1cc(C(=N)N)cs1` [Compound 122, (1S,3S,5S)-N-((R)-1-(4-carbamimidoylthiophen-2-yl)ethyl)-5-methyl-2-((4-phenoxy-butanoyl)glycyl)-2-azabicyclo[3.1.0]hexane-3-carboxamide] showed an IC50 of under 100 nM. With `C[C@@H](NC(=O)[C@@H]1C[C@@H](OC(F)F)CN1C(=O)CNC(=O)CCCOc1ccccc1)c1cc(C(=N)N)cs1` [Compound 123, (2S,4R)-N-((R)-1-(4-carbamimidoylthiophen-2-yl)ethyl)-4-(difluoromethoxy)-1-((4-phenoxybutanoyl)glycyl)pyrrolidine-2-carboxamide] the IC50 was under 100 nM. With `CC1(C)SCN(C(=O)CNC(=O)CCCOc2ccccc2)[C@@H]1C(=O)NCc1cc(C(=N)N)cs1` [Compound 124, (R)-N-((4-carbamimidoylthiophen-2-yl)methyl)-5,5-dimethyl-3-((4-phenoxybutanoyl)glycyl)thiazolidine-4-carboxamide] the IC50 was 100 to 1000 nM. `C[C@@H](NC(=O)[C@@H]1C[C@@H](S(C)(=O)=O)CN1C(=O)CNC(=O)CCCOc1ccccc1)c1cc(C(=N)N)cs1` [Compound 125, (2S,4R)-N-((R)-1-(4-carbamimidoylthiophen-2-yl)ethyl)-4-(methylsulfonyl)-1-((4-phenoxybutanoyl)glycyl)pyrrolidine-2-carboxamide] gave an IC50 of under 100 nM.
